The record followed here is patent US9834525B2, “Inhibitors of paxillin function and related compositions and methods” (UNIVERSITY OF TENNESSEE RESEARCH FOUNDATION, priority 2015, dated 2017).

“Also recorded” adds a separate entry of the source.

Data set [1] relates to retinal endothelial cells (REC). Nature of the data set: VEGF-induced REC proliferation, WST-1 metabolic assay. It is filed as cell-based, human. As to the method:
To investigate the potential of compound (II-4) affecting the proliferative capacity of RECs treated with VEGF, proliferation was measured using the metabolic assay based on the tetrazolium salt, WST-1. […] To rule out the possibility that this observation was related to cytotoxicity, RECs were incubated with a high concentration of compound (II-4) (1 μM) for 24 hours. Cells were harvested and apoptosis measured with Annexin-V/Propidium Iodide (PI) staining and analyzed using flow cytometry.
FIG. 18: REC Proliferation and Flow cytometry analysis of apoptosis in REC. A) VEGF-induced cellular proliferation was assessed using the WST-1 metabolic assay. […] (*P<0.0001). Nuclei were stained with DRAQ5 and imaged to show trend of decreasing proliferation. B) Apoptosis was measured using Annexin V/PI staining Compound (II-4) (1 μM) appears to be non-cytotoxic to retinal endothelial cells after 24 hour incubation (n≈10,000 cells).
FIG. 21: REC Proliferation. […] (*, # P<0.001; Mean±SD, N=8/group).
A general note: Tetrazolium dyes change colour on reduction, which living cells bring about.

The next data set deals with AKT (Ser473). Put plainly: Western blot of VEGF-induced AKT phosphorylation in REC. The data set is classed as cell-based, human. The conditions noted are these: REC under VEGF; compound (II-4) 500 nM, SU6656 1 μM. How it is done: REC, Mel 270, OMM 2.5 under Hepatocyte Growth Factor (HGF) or Vascular Endothelial Growth Factor (VEGF) stimulation conditions: Cell lysates were collected in RIPA lysis buffer (50 mM Tris-HCl, pH 7.4, 150 mM NaCl, 2 mM EDTA, 1% Nonidet P-40, 0.1% SDS) with protease 1× inhibitor cocktail (Roche; Indianapolis, Ind.). Lysates were kept on ice and centrifuged at 10,000×g×10 minutes and total protein was measured using the BCA assay (Pierce, Rockford, Ill.). Protein samples were mixed with 4×LDS loading buffer with 2.5% 2-mercaptoethanol (Sigma-Aldrich), heated to 70° C. for 10 minutes, and loaded on NuPAGE 4-12% Bis-Tris gel (Invitrogen, Carlsbad, Calif.). Immunoblotting was performed with nitrocellulose membranes (Bio-Rad, Hercules, Calif.) at 170-mA start and 110-mA end at 25 V for two hours in NuPAGE transfer buffer (Invitrogen) containing 20% methanol. Membranes were blocked using Odyssey blocking buffer (LI-COR; Lincoln, Nebr.) for one hour at room temperature with gentle shaking Membranes were then incubated at 4° C. with specific primary antibodies (1:1000) overnight. Cellular protein was normalized using rabbit-GAPDH or mouse-α-Tubulin [1:20,000] (Cell Signaling, Danvers, Mass.; LI-COR, respectively). […] Dual-channel infrared scan and quantitation of immunoblots were conducted using the ODYSSEY Sa infrared imaging system with Image Studio (Ver. 3.1.4) (LI-COR). […]
(In general: In western blotting, separated proteins are transferred to a membrane and probed.)

For data set [2], the system named is paxillin (pY118) in OMM 2.5 cells. Put plainly: Western blot of pY118 and total paxillin in HGF-treated metastatic UM cells. It is filed as cell-based, human. The conditions noted are these: HGF-treated OMM 2.5 cells, 4 hrs. As to the method: REC, Mel 270, OMM 2.5 under Hepatocyte Growth Factor (HGF) or Vascular Endothelial Growth Factor (VEGF) stimulation conditions: Cell lysates were collected in RIPA lysis buffer (50 mM Tris-HCl, pH 7.4, 150 mM NaCl, 2 mM EDTA, 1% Nonidet P-40, 0.1% SDS) with protease 1× inhibitor cocktail (Roche; Indianapolis, Ind.). Lysates were kept on ice and centrifuged at 10,000×g×10 minutes and total protein was measured using the BCA assay (Pierce, Rockford, Ill.). Protein samples were mixed with 4×LDS loading buffer with 2.5% 2-mercaptoethanol (Sigma-Aldrich), heated to 70° C. for 10 minutes, and loaded on NuPAGE 4-12% Bis-Tris gel (Invitrogen, Carlsbad, Calif.). […] Dual-channel infrared scan and quantitation of immunoblots were conducted using the ODYSSEY Sa infrared imaging system with Image Studio (Ver. 3.1.4) (LI-COR).
Immune studies of the α4β1 integrins (VCAM-1 and VLA-4) show high affinity α4 integrins may initiate signaling cascades through paxillin that regulate leukocytes migration to inflammation sites. […] The levels of total paxillin and pY118 were measured after activation of metastatic-UM (OMM 2.5) cells with Hepatocyte Growth Factor (HGF) to address in vitro if disruption of α4-downstream signaling through paxillin can affect α4-downstream signaling. […]

The target of the next data set is T1, CYP2D6 (Homo sapiens, UniProt P10635).
T1 construct: from tissue; host or cells: pooled human liver microsomes
Nature of the data set: CYP-450 interaction study in pooled human liver microsomes, CYP2D6. It is filed as in vitro ADME. The conditions noted are these: 1 μM. How it is done: CYP-450 interaction studies were conducted in pooled human liver microsomes (FIG. 8). CYP-450 inhibition (%) by compound (II-4) (1 μM) was compared to control inhibitors (1 μM) for the most common CYP-450 isoforms, CYP3A4, CYP2C9, CYP2D6, CYP2C19, and CYP1A2.
CYP-450 interaction studies were conducted in pooled human liver microsomes (FIG. 24). CYP-450 inhibition (%) by compound (II-4) (1 μM) was compared to control inhibitors (1 μM) for the most common CYP-450 isoforms, 3A4, 2C9, 2D6, 2C19, and 1A2.
In general terms: Liver microsomes are a subcellular fraction often used to study metabolism.

T1 sequence (P10635 whole entry): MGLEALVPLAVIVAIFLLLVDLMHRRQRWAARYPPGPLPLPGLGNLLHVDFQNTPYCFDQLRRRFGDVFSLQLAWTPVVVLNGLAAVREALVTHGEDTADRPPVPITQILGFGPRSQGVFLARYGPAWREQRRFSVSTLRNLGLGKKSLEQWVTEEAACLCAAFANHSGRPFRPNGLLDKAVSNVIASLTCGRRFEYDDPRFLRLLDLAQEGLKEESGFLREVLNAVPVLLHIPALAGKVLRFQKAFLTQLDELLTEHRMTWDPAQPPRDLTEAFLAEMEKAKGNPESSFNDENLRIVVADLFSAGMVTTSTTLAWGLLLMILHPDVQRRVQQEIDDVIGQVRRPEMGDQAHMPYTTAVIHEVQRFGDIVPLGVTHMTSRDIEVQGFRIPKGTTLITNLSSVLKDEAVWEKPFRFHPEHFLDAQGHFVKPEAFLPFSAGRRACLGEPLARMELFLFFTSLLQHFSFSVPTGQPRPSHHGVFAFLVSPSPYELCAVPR

For `COc1cc(C2OC(=O)Nc3c2ccc2ccccc32)cc(OC)c1OC` (centres unmarked) [compound II-4], the “VEGF-induced REC proliferation (FIG. 21)” value in data set [1] (Compound (II-4) (500 nM), LY294002 (1004), SU6656 (104), U0126 (104) [sic]) was “inhibited”. Besides, in data set [1] (increasing concentrations of compound (II-4)), the “VEGF-induced cellular proliferation (WST-1)” value was “significant decrease; also recorded: significantly reduces cellular proliferation”. Besides, the “VEGF-induced activation of AKT (P-AKT Ser473)” value with AKT (Ser473) is reported as “able to prevent; also recorded: reduced”. Moreover, the “ratio of pY118 paxillin to total paxillin (pPax:Pax)” value in data set [2] is on record as “dramatically decreased”. The “CYP-450 inhibition, CYP2D6” value on CYP2D6 was “lack of significant inhibition; also recorded: lacks significant inhibition”.
